Legend:
[1] = tested on: p-Nek1-T141 in LNCaP, VCaP, TRAMP-C2; assay: Western blots of checkpoint and apoptotic markers; format: cell-based; settings: with or without BIC, all 3 AS cell lines
Procedure: LNCaP, VCaP, and TRAMP-C2 cells from the four treatment groups as indicated were analyzed by WB for several indicators of DNA damage/apoptosis and mediators of cell cycle arrest. Representative analysis of two independent experiments for each cell line are shown
J54 with Bicalutamide suppresses the checkpoint markers and induces apoptotic markers. LNCaP, VCaP, and TRAMP-C2 are the main examples of established PCa cell lines that are initially AS, but when maintained in ADT condition, recapitulate the conversion to AI growth observed in patients, and start growing again. In the initial phase of ADT, they arrest cell division, primarily at the G1/S transition, and become quiescent, which is a protective effect from undergoing replication forks collapse upon inhibition of the licensing function of the AR. […] The inventors were also able to reproduce that the expression of TLK1B was induced in LNCaP and TRAMP-C2 following the addition of BIC. […] The VCaP cells were a little different because even without any BIC, p-ATR and p-Chk1 were already elevated. This has been observed before and attributed to a constitutive DDR activation due to the TMPRSS2-ERG fusion in these cells.

recombinant TLK1B = target: T1, recombinant TLK1B (Homo sapiens, UniProt Q9UKI8); assay: TLK1B kinase assay with Nek1 peptide (ADP Hunter), inhibitor screening; format: biochemical; parameters: The full-length, 65 KDa recombinant human TLK1B (hTLK1B) for the in-vitro experiments was expressed and purified from bacteria; made in house; host or cells: bacteria
T1 sequence (Q9UKI8 1-549 isoform Q9UKI8-3): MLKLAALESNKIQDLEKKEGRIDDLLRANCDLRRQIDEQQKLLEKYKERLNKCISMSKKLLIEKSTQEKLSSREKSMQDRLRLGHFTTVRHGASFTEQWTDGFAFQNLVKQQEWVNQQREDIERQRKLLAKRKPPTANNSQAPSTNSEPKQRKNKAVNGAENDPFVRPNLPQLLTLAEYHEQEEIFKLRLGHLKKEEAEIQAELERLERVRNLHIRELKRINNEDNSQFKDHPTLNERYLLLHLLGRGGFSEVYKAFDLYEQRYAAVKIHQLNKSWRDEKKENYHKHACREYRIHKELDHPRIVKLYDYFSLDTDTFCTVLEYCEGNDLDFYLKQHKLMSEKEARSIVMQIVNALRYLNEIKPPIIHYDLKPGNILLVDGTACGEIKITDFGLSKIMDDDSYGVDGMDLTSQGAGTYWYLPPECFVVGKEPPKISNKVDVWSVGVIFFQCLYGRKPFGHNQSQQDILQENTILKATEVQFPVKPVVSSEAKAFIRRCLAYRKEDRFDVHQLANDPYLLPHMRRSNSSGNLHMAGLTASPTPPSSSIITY
Procedure: FIG. 8A-FIG. 25 show further experiments into the present invention, with FIGS. 8A-8G show kinase assays, inhibitor screening, IC50 evaluation and competitive assays. Recombinant TLK1B purified to homogeneity (FIG. 8A) is active in kinase assays (FIG. 8B) and phosphorylates a specific Nek1 peptide (FIG. 8C). […] All experiments were conducted in triplicates. The DiscoverRx ADP Hunter™ (Eurofins DiscoverRx, Fremont, CA, US) Kit was used to measure the generation of ADP resulting from kinase phosphorylation of substrate.
Chemical synthesis of J54 and several different Phenothiazines and Protein expression and purification: Details were explained in section B of supplementary of material and methods. The full-length, 65 KDa recombinant human TLK1B (hTLK1B) for the in-vitro experiments was expressed and purified from bacteria as described earlier.
Results: A new PTH potent inhibitor of TLK1B. A few PTH antipsychotics were identified in a screen the inventors conducted from a compounds library as good inhibitors of TLK1. To find additional inhibitors, recombinant TLK1B was purified (FIG. 8A). The enzymatic activity was determined using the ADP-Hunter reagents and a Nek1 peptide containing the T141 target site. […] Several structurally similar compounds were synthesized as described in the Appendix (and see NMR and MS data FIGS. 10 and 11) and tested at 20 μM (FIGS. 8E and 8F). […] The inventors continued the inventors' characterization of J54.

c1ccc2c(c1)Sc1ccccc1N2CCN1CCOCC1 [J54, 4-(2-(10H-phenothiazin-10-yl)ethyl) morpholine]
p-Nek1-T141 level [1]: reduction in the p-Nek1-T141
IC50 (recombinant TLK1B; new inhibitor screening assay): 12.6 µM
inhibition of TLK1B compared with standard (recombinant TLK1B; tested at 20 μM): more inhibitory than Staurosporin
